Results reported in PubChem BioAssay (NCI).
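At the GI50, growth is halved. TGI: total growth inhibition.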

How the values were obtained:
Assay in all cases: inhibition of tumour cell growth, NCI panel, 384-well format
NCI-H23 lung = system: NCI-H23 lung
NCI-H322M lung = system: NCI-H322M lung
NCI-H460 NSCLC = system: NCI-H460 NSCLC
NCI-H522 lung = system: NCI-H522 lung
NCI/ADR-RES ovarian = system: NCI/ADR-RES ovarian
OVCAR-3 ovarian = system: OVCAR-3 ovarian
OVCAR-4 ovarian = system: OVCAR-4 ovarian
OVCAR-5 ovarian = system: OVCAR-5 ovarian
OVCAR-8 ovarian = system: OVCAR-8 ovarian
PC-3 prostate = system: PC-3 prostate
RPMI-8226 leukemia = system: RPMI-8226 leukemia
RXF 393 renal = system: RXF 393 renal
SF-268 CNS = system: SF-268 CNS
SF-295 CNS = system: SF-295 CNS
SF-539 CNS = system: SF-539 CNS
SK-MEL-2 melanoma = system: SK-MEL-2 melanoma
SK-MEL-28 melanoma = system: SK-MEL-28 melanoma
SK-MEL-5 melanoma = system: SK-MEL-5 melanoma
SK-OV-3 ovarian = system: SK-OV-3 ovarian
SN12C renal = system: SN12C renal
SNB-19 CNS = system: SNB-19 CNS
SR leukemia = system: SR leukemia
SW-620 colon = system: SW-620 colon
T-47D breast = system: T-47D breast
TK-10 renal = system: TK-10 renal
U251 glioblastoma = system: U251 glioblastoma
UACC-257 melanoma = system: UACC-257 melanoma
UACC-62 melanoma = system: UACC-62 melanoma
UO-31 renal = system: UO-31 renal

SMILES: O=P1(S)OC[C@H]2O[C@@H]3[C@H](F)[C@@H]2OP(O)(=S)OC[C@H]2O[C@H]([C@H](F)[C@@H]2O1)n1cnc2c(ncnc21)NC/C=C/CNc1ncnc2c1ncn23 (some centres not stated)
- TGI (NCI-H23 lung): > 100 µM
- GI50 (NCI-H322M lung): > 100 µM
- TGI (NCI-H322M lung): > 100 µM
- GI50 (NCI-H460 NSCLC): > 100 µM
- TGI (NCI-H460 NSCLC): > 100 µM
- GI50 (NCI-H522 lung): 7.35 µM
- TGI (NCI-H522 lung): 44.2 µM
- GI50 (NCI/ADR-RES ovarian): > 100 µM
- TGI (NCI/ADR-RES ovarian): > 100 µM
- GI50 (OVCAR-3 ovarian): 4.99 µM
- TGI (OVCAR-3 ovarian): 38.8 µM
- GI50 (OVCAR-4 ovarian): 11.3 µM
- TGI (OVCAR-4 ovarian): > 100 µM
- GI50 (OVCAR-5 ovarian): > 100 µM
- TGI (OVCAR-5 ovarian): > 100 µM
- GI50 (OVCAR-8 ovarian): > 100 µM
- TGI (OVCAR-8 ovarian): > 100 µM
- GI50 (PC-3 prostate): > 100 µM
- TGI (PC-3 prostate): > 100 µM
- GI50 (RPMI-8226 leukemia): 22.1 µM
- TGI (RPMI-8226 leukemia): > 100 µM
- GI50 (RXF 393 renal): 0.0445 µM
- TGI (RXF 393 renal): 19.7 µM
- GI50 (SF-268 CNS): > 100 µM
- TGI (SF-268 CNS): > 100 µM
- GI50 (SF-295 CNS): > 100 µM
- TGI (SF-295 CNS): > 100 µM
- GI50 (SF-539 CNS): 7.46 µM
- TGI (SF-539 CNS): > 100 µM
- GI50 (SK-MEL-2 melanoma): 2.82 µM
- TGI (SK-MEL-2 melanoma): 52 µM
- GI50 (SK-MEL-28 melanoma): > 100 µM
- TGI (SK-MEL-28 melanoma): > 100 µM
- GI50 (SK-MEL-5 melanoma): > 100 µM
- TGI (SK-MEL-5 melanoma): > 100 µM
- GI50 (SK-OV-3 ovarian): 24.3 µM
- TGI (SK-OV-3 ovarian): > 100 µM
- GI50 (SN12C renal): > 100 µM
- TGI (SN12C renal): > 100 µM
- GI50 (SNB-19 CNS): > 100 µM
- TGI (SNB-19 CNS): > 100 µM
- GI50 (SR leukemia): 0.0295 µM
- TGI (SR leukemia): 0.101 µM
- GI50 (SW-620 colon): > 100 µM
- TGI (SW-620 colon): > 100 µM
- GI50 (T-47D breast): > 100 µM
- TGI (T-47D breast): > 100 µM
- GI50 (TK-10 renal): > 100 µM
- TGI (TK-10 renal): > 100 µM
- GI50 (U251 glioblastoma): > 100 µM
- TGI (U251 glioblastoma): > 100 µM
- GI50 (UACC-257 melanoma): 0.151 µM
- TGI (UACC-257 melanoma): 19.3 µM
- GI50 (UACC-62 melanoma): > 100 µM
- TGI (UACC-62 melanoma): > 100 µM
- GI50 (UO-31 renal): > 100 µM
- TGI (UO-31 renal): > 100 µM
